# Experimental data reported in PubChem BioAssay AID2060607 (Molecular Pharmacology Branch, DTP, NCI, 2025).
# pIC50: −log10 of the molar value.
# Tested on: 876862-298-R-J1-PDC complex spheroids, viability % test/control
# Test: Anticancer human tumor 876862-298-R-J1-PDC patient-derived endometrial carcinoma cell line growth inhibition [CLK]
# Conditions: for pIC50: curve of first compound; for viability, T/C: stronger effect = lower value
# Method in brief: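 Multi-cell-type spheroids combined patient-derived tumor cells with HUVEC endothelial cells and human mesenchymal stem cells. Paired agents were dosed in half-log steps down from about clinical Cmax, or from 10 microM where Cmax was unknown.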
# [1] = second compound 0.0316 µM, first compound 0.0316 µM
# [2] = second compound 0.0316 µM, first compound 0.1 µM
# [3] = second compound 0.0316 µM, first compound 0.316 µM
# [4] = second compound 0.0316 µM, first compound 1 µM
# [5] = second compound 0.1 µM, first compound 0.0316 µM
# [6] = second compound 0.1 µM, first compound 0.1 µM
# [7] = second compound 0.1 µM, first compound 0.316 µM
# [8] = second compound 0.1 µM, first compound 1 µM
# [9] = second compound 0.316 µM, first compound 0.0316 µM
# [10] = second compound 0.316 µM, first compound 0.1 µM
# [11] = second compound 0.316 µM, first compound 0.316 µM
# [12] = second compound 0.316 µM, first compound 1 µM
# [13] = second compound 1 µM, first compound 0.0316 µM
# [14] = second compound 1 µM, first compound 0.1 µM
# [15] = second compound 1 µM, first compound 0.316 µM
# [16] = second compound 1 µM, first compound 1 µM
# [17] = second compound 3.16 µM, first compound 0.0316 µM
# [18] = second compound 3.16 µM, first compound 0.1 µM
# [19] = second compound 3.16 µM, first compound 0.316 µM
# [20] = second compound 3.16 µM, first compound 1 µM
# [21] = second compound 10 µM, first compound 0.0316 µM
# [22] = second compound 10 µM, first compound 0.1 µM
# [23] = second compound 10 µM, first compound 0.316 µM
# [24] = second compound 10 µM, first compound 1 µM
# 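Further: spheroids exposed to drugs for 7 days before readout.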
# 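Wherever viability, T/C is given: 100% = DMSO vehicle control wells.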
compound,measurement,setting,value
C=CC(=O)Nc1cc(Nc2nccc(-c3cn(C)c4ccccc34)n2)c(OC)cc1N(C)CCN(C)C + CN1CCN(c2cc(C(=O)Nc3cc4cc(-c5cnn(C)c5)ccc4cn3)ccn2)CC1,pIC50,second compound 0.0316 µM,6.58
same,pIC50,second compound 0.1 µM,> 9.02
same,pIC50,second compound 0.316 µM,> 9.02
same,pIC50,second compound 1 µM,> 9.02
same,pIC50,second compound 3.16 µM,> 9.02
same,pIC50,second compound 10 µM,> 9.02
same,"viability, T/C","second compound 0.0316 µM, first compound 0.000949 µM",90%
same,"viability, T/C","second compound 0.0316 µM, first compound 0.003 µM",92.8%
same,"viability, T/C","second compound 0.0316 µM, first compound 0.00949 µM",90%
same,"viability, T/C","second compound 0.0316 µM, first compound 0.03 µM",82.7%
same,"viability, T/C","second compound 0.0316 µM, first compound 0.0949 µM",67.6%
same,"viability, T/C","second compound 0.0316 µM, first compound 0.3 µM",47.6%
same,"viability, T/C","second compound 0.1 µM, first compound 0.000949 µM",51.6%
same,"viability, T/C","second compound 0.1 µM, first compound 0.003 µM",45.1%
same,"viability, T/C","second compound 0.1 µM, first compound 0.00949 µM",43.7%
same,"viability, T/C","second compound 0.1 µM, first compound 0.03 µM",48.8%
same,"viability, T/C","second compound 0.1 µM, first compound 0.0949 µM",43.3%
same,"viability, T/C","second compound 0.1 µM, first compound 0.3 µM",30.7%
same,"viability, T/C","second compound 0.316 µM, first compound 0.000949 µM",3.41%
same,"viability, T/C","second compound 0.316 µM, first compound 0.003 µM",4.12%
same,"viability, T/C","second compound 0.316 µM, first compound 0.00949 µM",3.52%
same,"viability, T/C","second compound 0.316 µM, first compound 0.03 µM",4.04%
same,"viability, T/C","second compound 0.316 µM, first compound 0.0949 µM",4.57%
same,"viability, T/C","second compound 0.316 µM, first compound 0.3 µM",3.03%
same,"viability, T/C","second compound 1 µM, first compound 0.000949 µM",0.75%
same,"viability, T/C","second compound 1 µM, first compound 0.003 µM",1.64%
same,"viability, T/C","second compound 1 µM, first compound 0.00949 µM",2.15%
same,"viability, T/C","second compound 1 µM, first compound 0.03 µM",1.03%
same,"viability, T/C","second compound 1 µM, first compound 0.0949 µM",0.6%
same,"viability, T/C","second compound 1 µM, first compound 0.3 µM",2.34%
same,"viability, T/C","second compound 3.16 µM, first compound 0.000949 µM",1.02%
same,"viability, T/C","second compound 3.16 µM, first compound 0.003 µM",1.18%
same,"viability, T/C","second compound 3.16 µM, first compound 0.00949 µM",1.66%
same,"viability, T/C","second compound 3.16 µM, first compound 0.03 µM",1.01%
same,"viability, T/C","second compound 3.16 µM, first compound 0.0949 µM",1.3%
same,"viability, T/C","second compound 3.16 µM, first compound 0.3 µM",1.16%
same,"viability, T/C","second compound 10 µM, first compound 0.000949 µM",0.77%
same,"viability, T/C","second compound 10 µM, first compound 0.003 µM",2.03%
same,"viability, T/C","second compound 10 µM, first compound 0.00949 µM",2.52%
same,"viability, T/C","second compound 10 µM, first compound 0.03 µM",1.87%
same,"viability, T/C","second compound 10 µM, first compound 0.0949 µM",2.21%
same,"viability, T/C","second compound 10 µM, first compound 0.3 µM",1.88%
CCN1CCN(Cc2ccc(Nc3ncc(F)c(-c4cc(F)c5nc(C)n(C(C)C)c5c4)n3)nc2)CC1 + CN1CCN(c2cc(C(=O)Nc3cc4cc(-c5cnn(C)c5)ccc4cn3)ccn2)CC1,pIC50,second compound 0.0316 µM,6.17
same,pIC50,second compound 0.1 µM,> 8.50
same,pIC50,second compound 0.316 µM,> 8.50
same,pIC50,second compound 1 µM,> 8.50
same,pIC50,second compound 3.16 µM,> 8.50
same,pIC50,second compound 10 µM,> 8.50
same,"viability, T/C","second compound 0.0316 µM, first compound 0.00316 µM",90.2%
same,"viability, T/C","second compound 0.0316 µM, first compound 0.01 µM",81.3%
same,"viability, T/C",[1],73.3%
same,"viability, T/C",[2],74.8%
same,"viability, T/C",[3],52.3%
same,"viability, T/C",[4],47.5%
same,"viability, T/C","second compound 0.1 µM, first compound 0.00316 µM",47%
same,"viability, T/C","second compound 0.1 µM, first compound 0.01 µM",45%
same,"viability, T/C",[5],44.1%
same,"viability, T/C",[6],47.3%
same,"viability, T/C",[7],40.9%
same,"viability, T/C",[8],43.3%
same,"viability, T/C","second compound 0.316 µM, first compound 0.00316 µM",5.03%
same,"viability, T/C","second compound 0.316 µM, first compound 0.01 µM",5.13%
same,"viability, T/C",[9],6.69%
same,"viability, T/C",[10],7.27%
same,"viability, T/C",[11],9.15%
same,"viability, T/C",[12],9.4%
same,"viability, T/C","second compound 1 µM, first compound 0.00316 µM",0.94%
same,"viability, T/C","second compound 1 µM, first compound 0.01 µM",1.28%
same,"viability, T/C",[13],1.38%
same,"viability, T/C",[14],1.66%
same,"viability, T/C",[15],2.25%
same,"viability, T/C",[16],3.04%
same,"viability, T/C","second compound 3.16 µM, first compound 0.00316 µM",1.66%
same,"viability, T/C","second compound 3.16 µM, first compound 0.01 µM",0.97%
same,"viability, T/C",[17],1.47%
same,"viability, T/C",[18],1.34%
same,"viability, T/C",[19],2.18%
same,"viability, T/C",[20],3.2%
same,"viability, T/C","second compound 10 µM, first compound 0.00316 µM",0.6%
same,"viability, T/C","second compound 10 µM, first compound 0.01 µM",0.92%
same,"viability, T/C",[21],1.95%
same,"viability, T/C",[22],2.18%
same,"viability, T/C",[23],1.88%
same,"viability, T/C",[24],2.14%
Nc1ccccc1NC(=O)c1ccc(CNC(=O)OCc2cccnc2)cc1 + CN1CCN(c2cc(C(=O)Nc3cc4cc(-c5cnn(C)c5)ccc4cn3)ccn2)CC1,pIC50,second compound 0.0316 µM,5.40
same,pIC50,second compound 0.1 µM,> 7.50
same,pIC50,second compound 0.316 µM,> 7.50
same,pIC50,second compound 1 µM,> 7.50
same,pIC50,second compound 3.16 µM,> 7.50
same,pIC50,second compound 10 µM,> 7.50
same,"viability, T/C",[1],86.8%
same,"viability, T/C",[2],95.2%
same,"viability, T/C",[3],81.9%
same,"viability, T/C",[4],83.9%
same,"viability, T/C","second compound 0.0316 µM, first compound 3.16 µM",54.9%
same,"viability, T/C","second compound 0.0316 µM, first compound 10 µM",30.6%
same,"viability, T/C",[5],48.5%
same,"viability, T/C",[6],48.5%
same,"viability, T/C",[7],40.9%
same,"viability, T/C",[8],34.1%
same,"viability, T/C","second compound 0.1 µM, first compound 3.16 µM",15.7%
same,"viability, T/C","second compound 0.1 µM, first compound 10 µM",3.34%
same,"viability, T/C",[9],2.84%
same,"viability, T/C",[10],1.59%
same,"viability, T/C",[11],1.03%
same,"viability, T/C",[12],0.37%
same,"viability, T/C","second compound 0.316 µM, first compound 3.16 µM",0.85%
same,"viability, T/C","second compound 0.316 µM, first compound 10 µM",0.12%
same,"viability, T/C",[13],0.89%
same,"viability, T/C",[14],1.78%
same,"viability, T/C",[15],1.05%
same,"viability, T/C",[16],0.95%
same,"viability, T/C","second compound 1 µM, first compound 3.16 µM",1.68%
same,"viability, T/C","second compound 1 µM, first compound 10 µM",1.65%
same,"viability, T/C",[17],1.22%
same,"viability, T/C",[18],1.55%
same,"viability, T/C",[19],1.06%
same,"viability, T/C",[20],1.89%
same,"viability, T/C","second compound 3.16 µM, first compound 3.16 µM",2.98%
same,"viability, T/C","second compound 3.16 µM, first compound 10 µM",3.09%
same,"viability, T/C",[21],0.79%
same,"viability, T/C",[22],1.03%
same,"viability, T/C",[23],2.17%
same,"viability, T/C",[24],1.89%
same,"viability, T/C","second compound 10 µM, first compound 3.16 µM",3.24%
same,"viability, T/C","second compound 10 µM, first compound 10 µM",1.78%
